17 compounds from PubChem BioAssay (NCI) can be followed below.

Some test systems named below: T-47D breast; NCI-H23 lung; RXF 393 renal; SF-268 CNS; SW-620 colon; NCI/ADR-RES ovarian; MDA-MB-435; SNB-78 CNS; XF 498 CNS; KM20L2 colon; M19-MEL melanoma; DMS 114 small cell lung; LXFL 529 NSCLC.
Common to all, as to assay: growth of human tumour cells (NCI), 48 h

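Cultured in 96-well plates, cells were exposed to test compound for 48 hours across five concentrations. At the TGI there is no net growth.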

As for `CN(CCc1ccccn1)c1ccc2c(c1)C(=O)c1ccccc1-2`, the TGI in the assay with T-47D breast, in the assay with NCI-H23 lung, in the assay with RXF 393 renal, in the assay on SF-268 CNS, with SW-620 colon and with NCI/ADR-RES ovarian was > 100 µM in each case. Moreover, in the assay on MDA-MB-435, the TGI is > 100 µM.

`CCOc1nc2c(N3CCCC3)nc(N3CCNCC3)nc2nc1NCc1ccccc1`: the TGI in the assay on T-47D breast came to 3.13 µM; in the assay on NCI-H23 lung, 3.45 µM; with RXF 393 renal, 2.29 µM; in the assay on SF-268 CNS, 3.03 µM; in the assay on SW-620 colon, 3.49 µM; in the assay with NCI/ADR-RES ovarian it was 8.6 µM. This compound yielded a TGI with MDA-MB-435 of 2.72 µM.

As to `COC(=O)c1c(O)ccc2c1c1cc3ccccc3c(O)c1n2CCc1ccc(OC)c(OC)c1`, the TGI in the assay with T-47D breast, in the assay with NCI-H23 lung, in the assay on RXF 393 renal, with SF-268 CNS, with NCI/ADR-RES ovarian and in the assay with MDA-MB-435 was > 100 µM in each case.

Take `O=P(NCCCO)(OCc1ccccc1)N(CCCl)CCCl` (centres undefined): the TGI in the assay on SNB-78 CNS, in the assay on XF 498 CNS, in the assay with NCI-H23 lung, in the assay on RXF 393 renal, in the assay with SF-268 CNS and with KM20L2 colon was > 100 µM in each case. Also, the TGI in the assay with SW-620 colon, with M19-MEL melanoma and in the assay with NCI/ADR-RES ovarian was > 100 µM in each case.

Turning to `O=[N+]([O-])c1ccc(N=Nc2c(O)[nH]c3ccccc23)c([N+](=O)[O-])c1`, the TGI in the assay on T-47D breast was 52.8 µM; with NCI-H23 lung, 25.8 µM; in the assay on RXF 393 renal, 31.5 µM; in the assay on SF-268 CNS, > 100 µM; with SW-620 colon, > 100 µM; with NCI/ADR-RES ovarian, 59.9 µM. Also, the TGI with MDA-MB-435 is > 100 µM.

For the compound `CC(C)CC(N)C(=O)NC(C(=O)NC(CCCNC(=N)N)C(=O)NC(CS)C(=O)NC1CSCC(C(=O)NC(Cc2ccccc2)C(=O)NC(C(=O)NC(CCCNC(=N)N)C(=O)O)C(C)C)NC(=O)C2CCCN2C(=O)C(CCCCN)NC(=O)C2CCCN2C(=O)C2CCCN2C(=O)C(Cc2ccc(O)cc2)NC(=O)C(CO)NC(=O)C(CCCCN)NC(=O)C(C(C)O)NC(=O)C(Cc2c[nH]c3ccccc23)NC1=O)C(C)C` (centres undefined), the TGI in the assay on T-47D breast, in the assay with NCI-H23 lung, in the assay on SF-268 CNS, in the assay on SW-620 colon, with NCI/ADR-RES ovarian and in the assay with MDA-MB-435 was > 25 µM in each case.

Consider `Cc1c(-c2ccccc2)[nH]c2cn[nH]c(=O)c12`, for which the TGI in the assay with NCI-H23 lung, in the assay with SF-268 CNS, with SW-620 colon, in the assay with NCI/ADR-RES ovarian and in the assay with MDA-MB-435 was > 100 µM each time.

With `O=C(Nc1ccccc1)Oc1ccc(C(=S)Nc2ccc(Br)cc2)cc1`, the TGI with T-47D breast was 75.1 µM; with NCI-H23 lung, 37.2 µM; in the assay with SF-268 CNS, > 100 µM; with SW-620 colon, > 100 µM; in the assay with NCI/ADR-RES ovarian, 39.7 µM; in the assay with MDA-MB-435, 39.7 µM.

Turning to `COc1ccc(N2C(=O)C(=O)C3(CCCCC3)C2=O)c2ccccc12`, the TGI with T-47D breast, in the assay with NCI-H23 lung, with RXF 393 renal, with SF-268 CNS, in the assay on SW-620 colon and with NCI/ADR-RES ovarian was > 10 µM throughout. Besides, in the assay on MDA-MB-435, the TGI is > 10 µM.

`CN1CCC(C(O)(c2ccccc2)c2ccc(Br)cc2)CC1` (centres undefined): the TGI with T-47D breast was 78.3 µM; in the assay on NCI-H23 lung it was > 100 µM; in the assay on RXF 393 renal it was 64.4 µM; in the assay on SF-268 CNS it was > 100 µM; in the assay on SW-620 colon, 61.1 µM; with NCI/ADR-RES ovarian, > 100 µM. The compound also registered a TGI in the assay with MDA-MB-435 of 30.7 µM.

`COc1ccc2nc3cc(Cl)ccc3c(NCCCN3CCN(CCCNc4ccc5nnn6c7ccccc7c(=O)c4c56)CC3)c2c1`: the TGI was > 25 µM with T-47D breast; > 25 µM with NCI-H23 lung; 6.25 µM with RXF 393 renal; > 25 µM with SF-268 CNS; > 25 µM in the assay on SW-620 colon; > 25 µM in the assay with NCI/ADR-RES ovarian. Further, the TGI in the assay on MDA-MB-435 is > 25 µM.

`C#C[C@]1(O)CC[C@H]2[C@@H]3CCc4cc(O)ccc4[C@H]3CC[C@@]21C`: the TGI with SNB-78 CNS was > 100 µM; in the assay with DMS 114 small cell lung, > 100 µM; in the assay on LXFL 529 NSCLC it was > 100 µM; in the assay with XF 498 CNS it was 98 µM; with NCI-H23 lung, 69.4 µM; with RXF 393 renal, 62.2 µM. The TGI was > 100 µM in the assay with SF-268 CNS, 38.9 µM in the assay on KM20L2 colon, > 100 µM with SW-620 colon and 57.2 µM in the assay with M19-MEL melanoma.

As for `COc1ccccc1-c1c(C#N)c(N)[nH]c(=S)c1C#N`, the TGI in the assay on NCI-H23 lung, with RXF 393 renal, in the assay on SF-268 CNS, in the assay with SW-620 colon, in the assay with NCI/ADR-RES ovarian and with MDA-MB-435 was > 100 µM in each case.

Turning to `CC(=O)c1ccc(Nc2c3ccccc3nc3occc23)cc1`, the TGI with T-47D breast was 32.8 µM; in the assay with NCI-H23 lung it was 17.1 µM; in the assay on RXF 393 renal it was < 0.0216 µM; in the assay with SF-268 CNS it was 7.49 µM; in the assay on SW-620 colon, > 100 µM; in the assay on MDA-MB-435, < 0.01 µM.

As for `COc1cc(C2S/C(=C/c3ccccc3)C(=O)N2c2cccc(NC(C)=O)c2)cc(OC)c1OC` (centres undefined), the TGI is 68.6 µM with T-47D breast; > 100 µM with NCI-H23 lung; > 100 µM in the assay on RXF 393 renal; > 100 µM in the assay with SF-268 CNS; > 100 µM in the assay with NCI/ADR-RES ovarian; 47.2 µM with MDA-MB-435.

For `COc1ccc(C2C3CCc4ccccc4C3=NN2S(=O)(=O)c2cccc(C(=O)O)c2OC)cc1` (centres undefined), the TGI in the assay on T-47D breast was > 100 µM; in the assay on NCI-H23 lung, > 100 µM; in the assay on RXF 393 renal, 62 µM; with SF-268 CNS, > 100 µM; in the assay on SW-620 colon, > 100 µM; in the assay on NCI/ADR-RES ovarian it was 11.7 µM. The compound also had a TGI in the assay on MDA-MB-435 of 4.15 µM.

With `O=C(O)c1cc2ccccc2c(N=Nc2ccc(S(=O)(=O)Nc3ncccn3)cc2)c1O`, the TGI in the assay on RXF 393 renal, in the assay on SF-268 CNS, in the assay with SW-620 colon, in the assay with NCI/ADR-RES ovarian and in the assay on MDA-MB-435 was > 100 µM each time.
